This assay has as its target Keap1/Nrf2 (Homo sapiens, UniProt Q14145). The assay is described as follows: Inhibition of Keap1 Kelch domain (unknown origin)/FITC-labelled-9mer Nrf2 (unknown origin) protein-protein interaction incubated for 30 mins by fluorescence polarisation assay. Background: Polarisation of emitted light reports the rotation of a fluorescent probe.

Sequence of Keap1/Nrf2 (Q16236 whole entry, the tested form may be a part): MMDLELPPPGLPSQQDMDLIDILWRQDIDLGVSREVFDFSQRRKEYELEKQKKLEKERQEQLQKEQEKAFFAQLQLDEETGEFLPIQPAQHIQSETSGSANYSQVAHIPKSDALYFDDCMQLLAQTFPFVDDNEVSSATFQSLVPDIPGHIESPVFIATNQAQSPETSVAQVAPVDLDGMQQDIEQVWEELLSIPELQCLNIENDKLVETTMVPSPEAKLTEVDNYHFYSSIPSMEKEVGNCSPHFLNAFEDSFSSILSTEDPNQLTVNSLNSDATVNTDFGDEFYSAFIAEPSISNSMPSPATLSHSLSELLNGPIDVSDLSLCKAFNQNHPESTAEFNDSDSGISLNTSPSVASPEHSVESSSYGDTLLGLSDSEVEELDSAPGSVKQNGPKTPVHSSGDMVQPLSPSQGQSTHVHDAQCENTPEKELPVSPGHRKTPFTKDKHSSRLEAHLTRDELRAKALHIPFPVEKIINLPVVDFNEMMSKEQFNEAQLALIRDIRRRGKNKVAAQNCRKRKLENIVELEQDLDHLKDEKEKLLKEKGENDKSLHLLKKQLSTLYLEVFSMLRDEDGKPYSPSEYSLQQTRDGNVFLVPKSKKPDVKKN
Sequence of Keap1/Nrf2 (Q14145 whole entry, the tested form may be a part): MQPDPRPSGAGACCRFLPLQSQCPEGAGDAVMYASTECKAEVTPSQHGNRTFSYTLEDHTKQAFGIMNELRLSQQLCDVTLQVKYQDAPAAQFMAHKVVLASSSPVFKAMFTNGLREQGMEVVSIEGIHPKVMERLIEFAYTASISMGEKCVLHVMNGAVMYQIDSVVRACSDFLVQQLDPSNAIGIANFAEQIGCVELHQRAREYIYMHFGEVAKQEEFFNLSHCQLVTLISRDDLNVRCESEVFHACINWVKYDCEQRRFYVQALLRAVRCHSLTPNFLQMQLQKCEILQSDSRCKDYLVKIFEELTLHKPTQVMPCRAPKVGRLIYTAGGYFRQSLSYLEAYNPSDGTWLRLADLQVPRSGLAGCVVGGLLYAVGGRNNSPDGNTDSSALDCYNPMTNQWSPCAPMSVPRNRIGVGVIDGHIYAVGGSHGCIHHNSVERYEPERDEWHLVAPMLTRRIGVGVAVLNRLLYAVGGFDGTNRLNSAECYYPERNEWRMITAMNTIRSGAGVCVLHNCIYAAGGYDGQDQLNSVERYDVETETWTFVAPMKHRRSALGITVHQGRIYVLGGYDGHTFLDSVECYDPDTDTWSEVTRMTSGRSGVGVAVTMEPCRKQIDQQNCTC

By IC50 is commonly meant the concentration at which inhibition is half-maximal. A lower IC50 goes with greater potency in that assay. In turn, `COc1ccc(S(=O)(=O)Nc2ccc(NS(=O)(=O)c3cccnc3)cc2)cc1` came in with a concentration for half-maximal inhibition (IC50) of 31.5 µM.

The values above are taken from ChEMBL document CHEMBL5360597, “Medicinal Chemistry Insights into the Development of Small-Molecule Kelch-Like ECH-Associated Protein 1-Nuclear Factor Erythroid 2-Related Factor 2 (Keap1-Nrf2) Protein-Protein Interaction Inhibitors” (J Med Chem, 2023).
